Data on 3 molecules can be found in article PMC5874719, “A π-Halogen Bond of Dibenzofuranones with the Gatekeeper Phe113 in Human Protein Kinase CK2 Leads to Potent Tight Binding Inhibitors” (Pharmaceuticals, 2018).

The viability is the share of living cells, or the viability signal relative to a control. The IC50 is the concentration at which inhibition is half-maximal.

Test [1] relates to ARPE19 cells. Description: MTT viability assay. The class given is cell-based, human. Particulars: 24 h; for cell viability reduced to: ARPE19, 50 µM (highest concentration), DMSO as reference. On the procedure:
(§1) Protein kinase CK2 is essential for the survival of cells. Therefore, we tested the impact of the CK2 inhibitors on the viability of cells in both lines. The inhibitors were applied in increasing concentrations up to 50 µM to growing cell cultures and the viability was analyzed by a MTT assay after 24 h of treatment. The effect of the compounds on the growth of the normal ARPE19 cells was rather moderate (Figure 5A). 5 had no impact on ARPE19 cell viability. 4b reduced the viability to 70% in its highest concentration and 4a exerted the strongest influence by reducing the ratio of viable cells to 40% when applying a 50 µM dose. In contrast LNCaP cells were strongly impaired by the treatment with the dibenzofurans (Figure 5B): Using 10 µM of the different inhibitors, we only observed an effect with 4b. However, increasing the concentration to 20, 25 and 50 µM exerted a drastic impact on the viability of LNCaP cells. With 50 µM 4b a viability rate of final 5% was obtained, whereas 4a and 5 reduced the viability to 30 to 35%. Thus, the inhibitors in particular affected the viability of LNCaP carcinoma cells, but not of normal retinal pigment epithelium cells. […] Even after 48 h of growth under CK2 inhibition ARPE19 cells appeared rather unaffected by the treatment. […]
(§2) Figure 5 Effects of dibenzofuran inhibitors on cell viability. […] Cell viability was determined using the MTT assay after 24 h of incubation. […]
(§3) ARPE19 cells (ATCC Number: CRL-2302), retinal pigment epithelia (RPE) cells, were maintained at 37 °C and 5% CO2 in Dulbecco’s modified Eagles medium (DMEM) supplemented with 2 mM L-glutamine, 1 mM gentamicin and 10% fetal calf serum (FCS) at 37 °C in an atmosphere enriched with 5% CO2. […] For the evaluation of cell morphology ARPE19 and LNCaP cells were analysed with bright field microscopy using a Axiovert microscope from Zeiss (Jena, Germany).
(§4) Cell proliferation and viability was determined using a colorimetric MTT-based assay (MTT: 3-[4,5-dimethylthiazol-2-yl]-2,5-diphenyl tetrazolium bromide, Sigma-Aldrich, Deisenhofen, Germany) as described in [72]. […]

Test [2] concerns LNCaP cells. Description: MTT viability assay. The class given is cell-based. The note with it: Homo sapiens, 24 h, DMSO as reference, read-out: cell viability. On the procedure:
as §1, §2, §3, §4

Test [3] concerns the target T1, surface displayed CK2α + CK2β (CK2α containing human CK2 holoenzyme) (Homo sapiens, UniProt P68400).
T1 construct: surface-display (autodisplay) carrier protein; made in house; host or cells: Escherichia coli BL21 (DE3), enzyme left on the cell surface
Description: whole-cell CK2 selectivity assay, holoenzyme surface displayed on E. coli. The class given is biochemical. The note with it: 600 µM ATP, 100 µM substrate peptide. An excerpt:
We recently reported a whole cell CK2 activity assay, which can be used for testing the selectivity of compounds towards CK2α and CK2α’ [47]. It is based on the surface display of the human CK2 subunits, either α or α’ together with β on E. coli, were they are able to form a functional tetrameric holoenzymes, either ααββ or α’α’ββ, depending on which α isoform has been expressed. This technique was used to investigate whether 4a or 5 have preference to one of the two catalytic isoforms of CK2.
For this purpose, their IC50 were determined following the protocol of the recently described whole-cell CK2 selectivity assay. In summary, 78 µL of a bacterial suspension of Escherichia coli BL21 (DE3) either surface displaying CK2α + CK2β or CK2α’ + CK2β in kinase buffer (50 mM Tris/HCl, pH 8.5, 100 mM NaCl, 10 mM MgCl2 and 1 mM DTT) were supplemented with 2 µL of the test compound dissolved in DMSO and incubated at 37 °C and 400 rpm for 10 min. CK2 reactions were started by the addition of 120 µL of assay buffer (25 mM Tris/HCl, pH 7.5, 150 mM NaCl, 5 mM MgCl2, 1 mM DTT, 167 µM substrate peptide […] and 1 mM ATP) leading to a total reaction volume of 200 µL with final concentrations of 100 µM for the substrate peptide and 600 µM for ATP. […] After the samples were incubated for 120 min at 37 °C and 400 rpm, the CK2 presenting bacteria were removed by centrifugation (3850× g, 5 min, 4 °C). The obtained supernatants were transferred to the wells of a 96 well-microplate and finally supplemented with EDTA to a concentration of 12.5 mM to definitely stop the enzymatic reactions. The samples were then subjected to a Beckman Coulter pa800 plus (Krefeld, Germany) CE system and analyzed for phosphorylation of the substrate peptide. Samples containing pure DMSO served as controls for 0% inhibition and samples additionally lacking ATP served as controls for 100% inhibition. […] IC50 values were calculated from the resulting dose-response curves.
CK2α’ + CK2β (right column).
Mean values ± standard errors of
the means (SEM) are shown. […]

T1 sequence (P68400 whole entry): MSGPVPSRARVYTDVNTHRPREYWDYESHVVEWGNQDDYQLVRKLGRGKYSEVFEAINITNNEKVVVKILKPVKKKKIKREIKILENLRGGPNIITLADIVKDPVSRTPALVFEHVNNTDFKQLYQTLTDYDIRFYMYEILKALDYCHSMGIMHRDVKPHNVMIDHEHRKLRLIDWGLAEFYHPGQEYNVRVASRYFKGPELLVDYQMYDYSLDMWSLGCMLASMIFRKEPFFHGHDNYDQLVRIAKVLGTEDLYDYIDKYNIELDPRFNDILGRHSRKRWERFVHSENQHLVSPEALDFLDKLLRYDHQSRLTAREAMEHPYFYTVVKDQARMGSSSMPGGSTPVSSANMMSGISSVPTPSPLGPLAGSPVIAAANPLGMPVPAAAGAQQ
T1 sequence (P67870 whole entry partner): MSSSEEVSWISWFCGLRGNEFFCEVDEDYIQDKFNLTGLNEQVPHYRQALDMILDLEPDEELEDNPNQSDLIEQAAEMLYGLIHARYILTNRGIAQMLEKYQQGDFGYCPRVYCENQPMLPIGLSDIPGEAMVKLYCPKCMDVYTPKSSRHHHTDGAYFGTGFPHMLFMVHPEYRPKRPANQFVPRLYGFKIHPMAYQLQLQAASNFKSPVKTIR

Take `COc1ccc(N/C=C2\C(=O)CCc3c2oc2cc(Cl)c(O)c(Cl)c32)cc1` [4a, 7,9-dichloro-1,2-dihydro-8-hydroxy-4-[(4-methoxyphenylamino)methylene]dibenzo[b,d]furan-3(2H)-one]: the “cell viability reduced to” value in test [1] is recorded as 40%. Also, in test [2], the viability at 50 µM fell in the range of 30 to 35%. For the same molecule, in test [3], the IC50 was 62 nM.
The corresponding values for `Cc1ccc(NC=C2C(=O)CCc3c2oc2c(Cl)c(Cl)c(O)cc32)cc1` [4b, 6,7-dichloro-1,4-dihydro-8-hydroxy-4-[(4-methylphenylamino)methylene]dibenzo[b,d]furan-3(2H)-one] are 70%, 5% and 877 nM.
In the case of `COc1ccc(/N=C/c2c(O)ccc3c2oc2cc(Cl)c(O)c(Cl)c23)cc1` [compound 5, (E)-1,3-dichloro-6-[(4-methoxyphenylimino)methyl]dibenzo[b,d]furan-2,7-diol], in test [1] (ARPE19, up to 50 µM), the “impact on cell viability” value is on record as “no impact”. In addition, the viability at 50 µM in test [2] was 30 to 35%. The IC50 in test [3] amounted to 98 nM.
